According to PMC8151276, “An Integrated Approach toward NanoBRET Tracers for Analysis of GPCR Ligand Engagement” (Molecules, 2021):

How the values were obtained:
Format in all cases: binding
P2RY11 = target: T1, P2RY11 (Homo sapiens, UniProt Q96G91); assay: NanoBRET screen HiBiT-P2RY11 in HEK293
T1 construct: purchased Promega (in-house HiBiT-GPCR construct library, NanoBRET)
T1 sequence (Q96G91 1-374): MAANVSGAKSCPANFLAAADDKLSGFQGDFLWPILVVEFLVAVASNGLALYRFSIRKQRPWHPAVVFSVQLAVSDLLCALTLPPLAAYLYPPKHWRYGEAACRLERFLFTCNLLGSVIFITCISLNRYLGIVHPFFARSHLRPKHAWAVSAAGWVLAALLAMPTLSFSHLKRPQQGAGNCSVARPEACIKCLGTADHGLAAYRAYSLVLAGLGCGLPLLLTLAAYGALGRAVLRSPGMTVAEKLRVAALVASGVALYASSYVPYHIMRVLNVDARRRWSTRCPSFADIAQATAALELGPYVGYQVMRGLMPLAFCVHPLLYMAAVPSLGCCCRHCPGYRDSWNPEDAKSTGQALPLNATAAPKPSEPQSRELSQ
Experimental: (§1) Each tracer candidate was screened across the entire library of HiBiT-GPCR constructs using NanoBRET as the detection modality. As depicted in Figure 4A, the specificity of interactions was evaluated through decrease in BRET due to competitive displacement of a bound tracer by excess parental compound. Each tracer was analyzed for binding to each HiBiT-GPCR fusion in the absence and in the presence of competing parental compound. Briefly, HEK293 cells were transfected with HiBiT-GPCR constructs diluted into promoterless DNA to reduce expression and maximize translocation to the cell surface. Each tracer candidate was then screened at concentrations of 1 μM and 0.1 μM across cells expressing these fusions. Cells were treated for 1.5 h with tracer either alone or in the presence of 20 μM competing parental compound (i.e., control). BRET was measured upon addition of purified LgBiT and subsequent complementation with HiBiT genetically fused to a GPCR. The specificity of interactions was assessed through a decrease in BRET signal due to competitive displacement of the bound tracer. To further gauge the robustness of these interactions, the fold response over the control (i.e., BRETtracer/BRETcontrol) was calculated. We chose a 1.5-fold response, which translates to ≥7-fold signal over noise as the minimal threshold required to score an interaction as positive. […]. Below we highlight the screening results obtained for our exemplary fluorescent tracers based on Clozapine, Amitriptyline and AZD1283.
(§2) HiBiT-GPCR DNA constructs were diluted in 10 mM Tris pH 8 to a final concentration of 0.01 μg/μL, arrayed in 96-well plates and stored at −20 °C. For transfection, HEK293 cells were suspended in Opti-MEM (without phenol red) supplemented with 2% fetal bovine serum (Seradigm) and 100 units/mL penicillin–streptomycin (Gibco) at a final concentration of 220,000 cells/mL and dispensed into white 96-well plates at 90 μL/well. Subsequent transfections and screens were carried using an Agilent Bravo Automated Liquid Handling Platform. First, the 96-well HiBiT DNA arrays were diluted 25-fold in Opti-MEM (without serum or phenol red) to a final concentration of 0.0004 μg/μL and 20 μL of the diluted DNAs were transferred into new 96-well plates. Next, promoterless carrier DNA (1 μg/μL) was diluted 25-fold (0.04 μg/μL) and then dispensed into the diluted arrays at 20 μL/well. Following brief mixing, Viafect transfection reagent (Promega) diluted 16-fold into Opti-MEM was dispensed into the plates at 40 μL/well. After mixing by pipetting, plates were incubated for 10 min on the pipetting station deck. The DNA-transfection reagent complexes were then added to plates containing cells. To facilitate the screen, 10 μL of DNA-transfection reagent complexes were added in duplicates to the top 4 and bottom 4 rows, resulting in two identical 48-well arrays per plate. Plates with transfected cells were incubated for 18–20 h at 37 °C/5% CO2. A screen of each tracer across the entire library using two different concentrations requires duplicate plates of transfected cells. Depending on the number of tracers being screened, transfections can be scaled up using the same ratios. The next day, for each tracer, four 20× screening solutions in tracer dilution buffer (Promega) were prepared: two duplicates at final concentration of 20 μM and two duplicates at a final concentration of 2 μM. A competing unmodified compound was added to one of each duplicate at a final concentration of 400 μM. The four resulting solutions were diluted 4-fold in Opti-MEM without serum or phenol red to generate 5× solutions (5 µM and 0.5 µM tracer +/− 100 μM competing compound). To screen the library, a BioTek MultiFlo FX liquid dispenser was used to dispense 22.5 µL of tracer solution to the top 4 rows and 22.5 µL tracer + competing compound solution to the 4 bottom rows. Plates were briefly mixed on an orbital shaker and incubated for 1.5 h at room temperature. […]

ADORA1 = target: T2, ADORA1 (Homo sapiens, UniProt P30542); assay: NanoBRET screen HiBiT-ADORA1 in HEK293
T2 construct: purchased Promega (in-house HiBiT-GPCR construct library, NanoBRET)
T2 sequence (P30542 1-326): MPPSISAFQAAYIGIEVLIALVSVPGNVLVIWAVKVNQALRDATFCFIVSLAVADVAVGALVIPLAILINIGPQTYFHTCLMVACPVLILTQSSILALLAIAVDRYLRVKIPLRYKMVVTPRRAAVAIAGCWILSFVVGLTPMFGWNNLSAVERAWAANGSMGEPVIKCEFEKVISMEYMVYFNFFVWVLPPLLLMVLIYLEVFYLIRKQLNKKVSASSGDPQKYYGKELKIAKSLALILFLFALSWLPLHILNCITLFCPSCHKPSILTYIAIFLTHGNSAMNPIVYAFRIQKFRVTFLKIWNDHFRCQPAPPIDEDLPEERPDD
Experimental: as §1, §2

FZD9 = target: T3, FZD9 (Homo sapiens, UniProt O00144); assay: NanoBRET screen HiBiT-FZD9 in HEK293
T3 construct: purchased Promega (in-house HiBiT-GPCR construct library, NanoBRET)
T3 sequence (O00144 23-591): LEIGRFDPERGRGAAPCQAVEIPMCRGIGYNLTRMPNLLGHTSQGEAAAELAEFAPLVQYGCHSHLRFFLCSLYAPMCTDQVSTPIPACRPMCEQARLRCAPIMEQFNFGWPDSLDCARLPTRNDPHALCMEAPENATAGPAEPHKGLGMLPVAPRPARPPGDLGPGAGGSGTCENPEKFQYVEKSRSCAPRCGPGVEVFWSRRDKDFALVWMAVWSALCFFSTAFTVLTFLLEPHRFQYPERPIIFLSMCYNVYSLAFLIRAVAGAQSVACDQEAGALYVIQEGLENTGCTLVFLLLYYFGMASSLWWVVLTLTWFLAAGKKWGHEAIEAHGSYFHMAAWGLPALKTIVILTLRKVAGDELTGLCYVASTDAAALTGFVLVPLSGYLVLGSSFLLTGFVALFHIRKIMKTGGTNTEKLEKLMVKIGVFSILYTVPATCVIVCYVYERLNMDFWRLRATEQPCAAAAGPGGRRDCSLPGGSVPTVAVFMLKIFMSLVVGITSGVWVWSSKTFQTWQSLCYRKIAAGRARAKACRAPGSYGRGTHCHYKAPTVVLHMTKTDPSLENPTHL
Experimental: as §1, §2

GRM5 = target: T4, GRM5 (Homo sapiens, UniProt P41594); assay: NanoBRET screen HiBiT-GRM5 in HEK293
T4 construct: purchased Promega (in-house HiBiT-GPCR construct library, NanoBRET)
T4 sequence (P41594 21-1212): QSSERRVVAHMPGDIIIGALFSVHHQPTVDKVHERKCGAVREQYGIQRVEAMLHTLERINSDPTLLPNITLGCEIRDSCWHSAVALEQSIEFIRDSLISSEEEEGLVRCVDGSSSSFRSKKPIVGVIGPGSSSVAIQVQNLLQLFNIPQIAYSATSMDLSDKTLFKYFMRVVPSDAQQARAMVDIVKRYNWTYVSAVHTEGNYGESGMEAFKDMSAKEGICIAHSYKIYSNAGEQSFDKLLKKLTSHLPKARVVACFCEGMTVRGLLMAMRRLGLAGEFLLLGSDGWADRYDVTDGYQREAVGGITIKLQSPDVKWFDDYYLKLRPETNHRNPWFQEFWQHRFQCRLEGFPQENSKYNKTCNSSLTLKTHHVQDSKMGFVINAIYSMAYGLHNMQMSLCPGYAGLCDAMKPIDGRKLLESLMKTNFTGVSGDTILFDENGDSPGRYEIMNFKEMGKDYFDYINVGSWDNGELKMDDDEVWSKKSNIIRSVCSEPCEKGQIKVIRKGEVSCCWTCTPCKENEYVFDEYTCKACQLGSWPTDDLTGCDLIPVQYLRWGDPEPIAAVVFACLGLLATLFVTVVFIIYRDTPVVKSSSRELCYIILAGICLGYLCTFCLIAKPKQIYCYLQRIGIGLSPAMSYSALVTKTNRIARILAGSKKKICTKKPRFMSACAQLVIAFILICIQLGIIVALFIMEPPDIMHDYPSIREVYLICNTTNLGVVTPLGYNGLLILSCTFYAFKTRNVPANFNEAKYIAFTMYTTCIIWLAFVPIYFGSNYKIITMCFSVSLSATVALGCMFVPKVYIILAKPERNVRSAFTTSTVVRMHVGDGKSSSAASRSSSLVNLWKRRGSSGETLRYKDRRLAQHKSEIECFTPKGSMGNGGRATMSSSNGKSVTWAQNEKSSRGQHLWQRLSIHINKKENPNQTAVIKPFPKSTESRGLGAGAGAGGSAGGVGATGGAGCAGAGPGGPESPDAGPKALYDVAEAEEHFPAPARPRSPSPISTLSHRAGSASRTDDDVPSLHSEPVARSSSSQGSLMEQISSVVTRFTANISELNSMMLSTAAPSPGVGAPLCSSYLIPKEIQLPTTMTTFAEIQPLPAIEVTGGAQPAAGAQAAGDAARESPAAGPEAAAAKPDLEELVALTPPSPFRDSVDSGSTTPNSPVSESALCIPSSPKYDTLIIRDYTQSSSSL
Experimental: as §1, §2

Compound | NanoBRET Fold Response (P2RY11; P2RY11, tracer 0.1μM) | NanoBRET Fold Response (P2RY11; P2RY11, tracer 1μM) | NanoBRET Fold Response (ADORA1; ADORA1, tracer 0.1μM) | NanoBRET Fold Response (ADORA1; ADORA1, tracer 1μM) | NanoBRET Fold Response (FZD9; FZD9, tracer 0.1μM) | NanoBRET Fold Response (FZD9; FZD9, tracer 1μM) | NanoBRET Fold Response (GRM5; GRM5, tracer 0.1μM) | NanoBRET Fold Response (GRM5; GRM5, tracer 1μM) | other results
O=C(CCc1ccc2n1[B-](F)(F)[N+]1=C(c3ccc[nH]3)C=CC1=C2)NCc1ccc(C(=O)NCCOCCC(=O)N[C@@H]2CC[C@@]3(O)[C@H]4Cc5ccc(O)c6c5[C@@]3(CCN4CC3CC3)[C@H]2O6)cc1 [Naltrexone-3-NB590] | 1.26 | 0.71 | 0.84 | 1.23 | 1.17 | 0.96 | 1.25 | 1.14 | 
CCCn1c(=O)c2[nH]c(-c3ccc(OCC(=O)NCCNC(=O)CCOCCNC(=O)c4ccc(CNC(=O)CCc5ccc6n5[B-](F)(F)[N+]5=C(c7ccc[nH]7)C=CC5=C6)cc4)cc3)nc2n(CCC)c1=O [XAC-3-NB590] | 1.21 | 1.25 | 10.95 | 7.99 | 1.00 | 1.07 | 1.01 | 0.98 | 
CC(C)N(CC[C@H](c1ccccc1)c1cc(CCNC(=O)c2ccc(CNC(=O)CCc3ccc4n3[B-](F)(F)[N+]3=C(c5ccc[nH]5)C=CC3=C4)cc2)ccc1O)C(C)C [Tolterodine-BZ-NB590] | 1.07 | 0.96 | 1.18 | 1.02 | 0.95 | 1.04 | 1.00 | 1.05 | 
COc1ccc2[nH]c(-c3ccc(CNC(=O)CCOCCOCCOCCOCCNC(=O)CCc4ccc5n4[B-](F)(F)[N+]4=C(c6ccc[nH]6)C=CC4=C5)cc3)c(CCNC(C)=O)c2n1 [AzomelatoninICO9-2-NB590] |  |  |  |  |  |  |  |  | NanoBRET Fold Response (P2RY11; 0.1μM tracer): 1.19; NanoBRET Fold Response (P2RY11; 1μM tracer): 0.97; NanoBRET Fold Response (ADORA1; 0.1μM tracer): 0.91; NanoBRET Fold Response (ADORA1; 1μM tracer): 0.94; NanoBRET Fold Response (FZD9; 0.1μM tracer): 1.30; NanoBRET Fold Response (FZD9; 1μM tracer): 0.94; NanoBRET Fold Response (GRM5; 0.1μM tracer): 0.97; NanoBRET Fold Response (GRM5; 1μM tracer): 1.03
CN1CCN(C2=Nc3cc(Cl)ccc3N(CC(=O)NCCOCCOCCOCCOCCNC(=O)CCc3ccc4n3[B-](F)(F)[N+]3=C(c5ccc[nH]5)C=CC3=C4)c3ccccc32)CC1 [Clozapine-c-2-NB590] |  |  |  |  |  |  |  |  | NanoBRET Fold Response (P2RY11; P2RY11, 0.1μM tracer): 0.93; NanoBRET Fold Response (P2RY11; P2RY11, 1μM tracer): 0.98; NanoBRET Fold Response (ADORA1; ADORA1, 0.1μM tracer): 1.00; NanoBRET Fold Response (ADORA1; ADORA1, 1μM tracer): 0.87; NanoBRET Fold Response (FZD9; FZD9, 0.1μM tracer): 0.95; NanoBRET Fold Response (FZD9; FZD9, 1μM tracer): 0.95; NanoBRET Fold Response (GRM5; GRM5, 0.1μM tracer): 0.99; NanoBRET Fold Response (GRM5; GRM5, 1μM tracer): 1.12
COc1ccccc1N1CCN(CCCCN2C(=O)c3ccc(CNC(=O)CCOCCNC(=O)c4ccc(CNC(=O)CCc5ccc6n5[B-](F)(F)[N+]5=C(c7ccc[nH]7)C=CC5=C6)cc4)cc3C2=O)CC1 [NAN-190-3-NB590] | 1.05 | 0.96 | 1.07 | 0.89 | 0.94 | 1.18 | 1.05 | 1.15 | 
Cc1nc2n(c(=O)c1CCN1CCC(c3noc4cc(F)ccc34)CC1)CCCC2OC(=O)NCCOCCOCCOCCOCCNC(=O)CCc1ccc2n1[B-](F)(F)[N+]1=C(c3ccc[nH]3)C=CC1=C2 (centres unmarked) [Risperidone-2-NB590] | 1.04 | 0.88 | 1.04 | 1.05 | 1.00 | 0.99 | 0.98 | 1.02 | 
O=C(CCOCCOCCOCCOCCNC(=O)CCc1ccc2n1[B-](F)(F)[N+]1=C(c3ccc[nH]3)C=CC1=C2)NCCCN1CCN(C2=Nc3ccccc3Oc3ccc(Cl)cc32)CC1 [Loxapine-a-2-NB590] | 1.02 | 0.94 | 1.13 | 1.04 | 1.00 | 1.07 | 1.00 | 1.04 | 
COc1ccccc1N1CCN(CCCCN2C(=O)c3ccc(CNC(=O)CCOCCOCCOCCOCCNC(=O)CCc4ccc5n4[B-](F)(F)[N+]4=C(c6ccc[nH]6)C=CC4=C5)cc3C2=O)CC1 [NAN-190-2-NB590] | 1.09 | 0.99 | 1.10 | 0.92 | 0.96 | 1.06 | 0.96 | 1.04 | 
CN(C)CCC=C1c2ccccc2CCc2ccc(C(=O)NCCNC(=O)CCOCCOCCOCCOCCNC(=O)CCc3ccc4n3[B-](F)(F)[N+]3=C(c5ccc[nH]5)C=CC3=C4)cc21 [Amitriptyline-a-2-NB590] |  |  |  |  |  |  |  |  | NanoBRET Fold Response (P2RY11; tracer at 0.1μM): 1.13; NanoBRET Fold Response (P2RY11; tracer at 1μM): 1.07; NanoBRET Fold Response (ADORA1; tracer at 0.1μM): 1.11; NanoBRET Fold Response (ADORA1; tracer at 1μM): 1.02; NanoBRET Fold Response (FZD9; tracer at 0.1μM): 0.96; NanoBRET Fold Response (FZD9; tracer at 1μM): 1.07
CN(CCC=C1c2ccccc2CCc2ccccc21)C(=O)CCOCCOCCOCCOCCNC(=O)CCc1ccc2n1[B-](F)(F)[N+]1=C(c3ccc[nH]3)C=CC1=C2 [Amitriptyline-e-2-NB590] |  |  |  |  |  |  |  |  | NanoBRET Fold Response (P2RY11; tracer at 1μM): 1.13; NanoBRET Fold Response (ADORA1; tracer at 1μM): 1.08
